Assays:
[1] = molecular target: Prothrombin (Homo sapiens, UniProt P00734); assay: In vitro inhibitory activity against thrombin in human plasma; format: cell-free
[2] = molecular target: Plasminogen (Homo sapiens, UniProt P00747); assay: Inhibitory activity against plasmin in human plasma
[3] = molecular target: Serine protease 1 (Homo sapiens, UniProt P07477); assay: Inhibitory activity against trypsin
[4] = molecular target: Coagulation factor X (Homo sapiens, UniProt P00742); assay: Inhibitory activity against coagulation factor X in human plasma; format: cell-free
[5] = Partition coefficient (logP); format: physicochemical; conditions: octanol/water
[6] = species: Homo sapiens; assay: Effective dose (in vitro) using activated partial thromboplastin time (aPTT); format: functional

Sequence of Plasminogen (P00747 97-580 limits assumed): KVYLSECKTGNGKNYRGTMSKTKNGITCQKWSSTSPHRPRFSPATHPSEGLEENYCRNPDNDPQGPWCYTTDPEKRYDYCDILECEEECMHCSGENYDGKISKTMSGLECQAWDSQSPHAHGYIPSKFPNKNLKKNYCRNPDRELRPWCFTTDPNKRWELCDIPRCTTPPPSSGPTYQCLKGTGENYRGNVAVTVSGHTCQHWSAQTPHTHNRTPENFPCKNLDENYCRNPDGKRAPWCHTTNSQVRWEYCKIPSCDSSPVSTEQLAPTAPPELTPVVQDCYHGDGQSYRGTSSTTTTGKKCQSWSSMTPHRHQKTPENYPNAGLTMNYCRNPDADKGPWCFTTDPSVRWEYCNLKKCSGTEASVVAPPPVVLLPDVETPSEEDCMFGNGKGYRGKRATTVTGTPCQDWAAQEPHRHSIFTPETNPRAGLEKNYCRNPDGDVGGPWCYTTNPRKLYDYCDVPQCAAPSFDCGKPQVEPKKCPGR
Sequence of Plasminogen (P00747 581-810 limits assumed): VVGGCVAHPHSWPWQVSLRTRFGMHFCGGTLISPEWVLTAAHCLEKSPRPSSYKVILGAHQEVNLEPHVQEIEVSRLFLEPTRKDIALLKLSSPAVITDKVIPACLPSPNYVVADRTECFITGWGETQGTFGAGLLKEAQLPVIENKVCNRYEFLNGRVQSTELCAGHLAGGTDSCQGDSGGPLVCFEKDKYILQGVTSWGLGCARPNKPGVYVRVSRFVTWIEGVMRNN
Sequence of Serine protease 1 (P07477 whole entry): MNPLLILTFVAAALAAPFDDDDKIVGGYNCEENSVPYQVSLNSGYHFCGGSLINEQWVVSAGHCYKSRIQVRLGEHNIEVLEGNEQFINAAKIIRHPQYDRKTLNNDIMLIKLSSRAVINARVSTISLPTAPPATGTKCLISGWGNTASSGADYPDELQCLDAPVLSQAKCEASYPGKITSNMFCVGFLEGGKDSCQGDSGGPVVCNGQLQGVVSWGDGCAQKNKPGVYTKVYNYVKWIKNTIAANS
Sequence of Coagulation factor X (P00742 41-179 limits assumed): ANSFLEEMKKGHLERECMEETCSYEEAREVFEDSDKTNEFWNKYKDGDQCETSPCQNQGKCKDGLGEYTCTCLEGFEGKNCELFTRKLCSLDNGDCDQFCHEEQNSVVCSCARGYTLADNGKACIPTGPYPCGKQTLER
Sequence of Coagulation factor X (P00742 235-488 limits assumed): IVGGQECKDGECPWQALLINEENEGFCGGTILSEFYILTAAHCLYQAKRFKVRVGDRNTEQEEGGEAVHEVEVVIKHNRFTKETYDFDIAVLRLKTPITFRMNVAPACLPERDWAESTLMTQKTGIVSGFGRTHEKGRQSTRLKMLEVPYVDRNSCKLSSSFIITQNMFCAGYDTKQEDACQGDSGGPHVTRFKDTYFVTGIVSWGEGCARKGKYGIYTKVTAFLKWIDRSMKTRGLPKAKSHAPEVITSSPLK

Compound | IC50 [1] | IC50 [2] | IC50 [3] | logP [5] | IC50 [4] | ED200 [6]
Cc1ccccc1-c1ccc2c(C)cc(Nc3ccc(C(=N)N)cc3)nc2c1 | 37 nM | 14800 nM | 3500 nM |  |  | 
CCOC(=O)Cc1ccc2c(C)cc(Oc3ccc(C(=N)N)cc3)nc2c1 | 92 nM |  |  |  |  | 
CCOC(=O)C1(c2ccc3c(C)cc(Oc4ccc(C(=N)N)cc4)nc3c2)CCCC1 | 3 nM | 5800 nM | 560 nM |  | 1500 nM | 
CCOC(=O)/C=C(\C)c1ccc2c(C)cc(Oc3ccc(C(=N)N)cc3)nc2c1 | 16 nM | 6400 nM | 6700 nM |  |  | 
Cc1ccc(-c2ccc3c(C)cc(Oc4ccc(C(=N)N)cc4)nc3c2)cc1 | 18 nM | 12200 nM | 4200 nM |  |  | 
Cc1ccccc1-c1ccc2c(C)cc(Oc3ccc(C(=N)N)cc3)nc2c1 | 6 nM | 8300 nM | 2900 nM | > 3.5 |  | 7.9 µM
CCOC(=O)C(C)(C)c1ccc2c(C)cc(Oc3ccc(C(=N)N)cc3)nc2c1 | 6 nM | 20000 nM | 2400 nM |  |  | 

Further compounds by falling IC50 [1], results first:

IC50 [1] | IC50 [2] | IC50 [3] | logP [5] | Compound | IC50 [4] | ED200 [6]
600 nM | 25000 nM | 8100 nM |  | C/C(=C\C(=O)O)c1ccc2c(C)cc(Oc3ccc(C(=N)N)cc3)nc2c1 |  | 
196 nM |  |  |  | Cc1cc(Sc2ccc(C(=N)N)cc2)nc2cc(Br)ccc12 |  | 
87 nM |  |  |  | Cc1cc(Nc2ccc(C(=N)N)cc2)nc2cc(Br)ccc12 |  | 
66 nM |  |  |  | Cc1cc(Oc2ccc(C(=N)N)cc2)nc2cc(Br)ccc12 |  | 
10 nM |  |  |  | CCOC(=O)C(CC)c1ccc2c(C)cc(Oc3ccc(C(=N)N)cc3)nc2c1 (stereo not given) |  | 
10 nM |  |  | 1.3 | CCOC(=O)CNC(=O)c1ccc(C)c(-c2ccc3c(C)cc(Oc4ccc(C(=N)N)cc4)nc3c2)c1 |  | 3.3 µM
8 nM |  |  | 0.5 | Cc1ccc(C(=O)NCC(=O)O)cc1-c1ccc2c(C)cc(Oc3ccc(C(=N)N)cc3)nc2c1 |  | 0.9 µM

Reference: ChEMBL document CHEMBL1136099, “Heterocyclic thrombin inhibitors. Part 1: design and synthesis of amidino-phenoxy quinoline derivatives” (Bioorg Med Chem Lett, 2003)
